In PubChem BioAssay AID651642 (Sanford-Burnham Center for Chemical Genomics, 2012) one finds IC50 data, which are given here for 7 molecules.

The subject of one experiment is HL-1. Put plainly: cardiomyocyte survival under oxidative or metabolic stress – cell-based, panel, H9c2 and HL-1, H2O2, 2-deoxyglucose, ATP luminescence, SAR follow-up (AID 651642).
The test system of another experiment is H9c2. The experiment is described as above.
[1] abbreviates: H9c2/HL-1 cardiomyocyte 2-deoxyglucose damage, mean of runs, with 2-deoxyglucose, mean IC50 across panel.
[2] abbreviates: H9c2/HL-1 cardiomyocyte 2-deoxyglucose damage, run 1, with 2-deoxyglucose.
The mark [3] stands for this setting: H9c2/HL-1 cardiomyocyte 2-deoxyglucose damage, run 2, with 2-deoxyglucose.
Setting [4] is: H9c2/HL-1 cardiomyocyte 2-deoxyglucose damage, run 3, with 2-deoxyglucose.
[5] abbreviates: H9c2/HL-1 cardiomyocyte 2-deoxyglucose damage, run 4, with 2-deoxyglucose.
The mark [6] stands for this setting: H9c2/HL-1 cardiomyocyte H2O2 oxidative damage, mean of runs, with H2O2, mean IC50 across panel.
Where [7] appears, read: H9c2/HL-1 cardiomyocyte H2O2 oxidative damage, run 1, with H2O2.
Setting [8] is: H9c2/HL-1 cardiomyocyte H2O2 oxidative damage, run 2, with H2O2.
Setting [9] is: H9c2/HL-1 cardiomyocyte H2O2 oxidative damage, run 3, with H2O2.
Setting [10] is: H9c2/HL-1 cardiomyocyte H2O2 oxidative damage, run 4, with H2O2.

Some results are limits rather than exact numbers.

`COc1cc(-c2cc(C(=O)Nc3cccc(-c4nn[nH]n4)c3)c3ccccc3n2)cc(OC)c1OC`: the 50% inhibitory concentration (IC50) (in general, the point on the concentration scale where inhibition reaches its midpoint) in the experiment on HL-1 (setting [1]) is 47.5 µM; with HL-1 (setting [2]), 27.6 µM; with HL-1 (setting [3]), 57.3 µM; with HL-1 (setting [4]), 48.6 µM; in the experiment with HL-1 (setting [5]), 56.7 µM; in the experiment on HL-1 (setting [6]) it was 25 µM. In addition, the IC50 is 26.1 µM in the experiment on HL-1 (setting [7]); 28.8 µM with HL-1 (setting [8]); 15.2 µM in the experiment on HL-1 (setting [9]); 29.8 µM in the experiment with HL-1 (setting [10]); above 79 µM in the experiment on H9c2 (setting [1]); above 79 µM in the experiment with H9c2 (setting [2]). Besides, the IC50 is above 79 µM in the experiment with H9c2 (setting [3]); above 79 µM in the experiment on H9c2 (setting [4]); above 79 µM in the experiment with H9c2 (setting [5]); 20.9 µM with H9c2 (setting [6]); 24.2 µM in the experiment on H9c2 (setting [7]); 24.3 µM in the experiment with H9c2 (setting [8]). Also, the IC50 in the experiment with H9c2 (setting [9]) came out at 16.4 µM; with H9c2 (setting [10]) it was 18.6 µM.

Turning to `COc1ccccc1CN1C(=O)c2ccccc2N2C(=O)c3c(ccc(OC)c3OC)C12` (stereo not given), the IC50 in the experiment with HL-1 (setting [1]) was 5.37 µM; in the experiment on HL-1 (setting [2]), 2.86 µM; in the experiment with HL-1 (setting [3]), 3.96 µM; in the experiment with HL-1 (setting [4]) it was 6.95 µM; in the experiment with HL-1 (setting [5]), 7.71 µM; with HL-1 (setting [7]), above 79 µM. The IC50 is above 79 µM in the experiment with HL-1 (setting [8]); 4.54 µM in the experiment on HL-1 (setting [9]); 12 µM with HL-1 (setting [10]); above 79 µM in the experiment with H9c2 (setting [2]); above 79 µM with H9c2 (setting [3]); 43.5 µM in the experiment with H9c2 (setting [4]). Further, the IC50 in the experiment on H9c2 (setting [5]) is 46.2 µM; in the experiment with H9c2 (setting [7]) it was above 79 µM; in the experiment with H9c2 (setting [8]), 0.303 µM; with H9c2 (setting [9]) it was above 79 µM; with H9c2 (setting [10]), above 79 µM.

`COc1ccc2nc(-c3cc(OC)c(OC)c(OC)c3)cc(C(=O)NCC(=O)Nc3ccc(C(C)=O)cc3)c2c1`: the IC50 in the experiment with HL-1 (setting [1]) is 4.33 µM; with HL-1 (setting [2]), 2.44 µM; in the experiment with HL-1 (setting [3]) it was 3 µM; with HL-1 (setting [4]), 4.63 µM; with HL-1 (setting [5]), 7.24 µM; in the experiment with HL-1 (setting [6]) it was 5.81 µM. For the same molecule, the IC50 with HL-1 (setting [7]) is 6.12 µM; in the experiment with HL-1 (setting [8]), 7.42 µM; in the experiment with HL-1 (setting [9]) it was 4.42 µM; with HL-1 (setting [10]) it was 5.28 µM; with H9c2 (setting [1]), 5.3 µM; with H9c2 (setting [2]), 6.66 µM. Further, the IC50 amounted to 7.3 µM with H9c2 (setting [3]); 3.59 µM in the experiment with H9c2 (setting [4]); 3.65 µM in the experiment with H9c2 (setting [5]); 1.52 µM in the experiment on H9c2 (setting [6]); 1.96 µM with H9c2 (setting [7]); 1.99 µM with H9c2 (setting [8]). Besides, the IC50 in the experiment with H9c2 (setting [9]) came out at 0.928 µM; in the experiment on H9c2 (setting [10]), 1.23 µM.

In the case of `COc1cc(-c2cc(C(=O)Nc3cccc(C(C)=O)c3)c3cccc(Cl)c3n2)cc(OC)c1OC`, the IC50 with HL-1 (setting [1]), in the experiment with HL-1 (setting [2]), in the experiment on HL-1 (setting [3]), in the experiment on HL-1 (setting [4]), in the experiment with HL-1 (setting [5]) and in the experiment on HL-1 (setting [7]) was above 79 µM throughout. Further, the IC50 is above 79 µM in the experiment on HL-1 (setting [8]); 2 µM with HL-1 (setting [9]); 2.5 µM in the experiment with HL-1 (setting [10]); above 79 µM in the experiment on H9c2 (setting [1]); above 79 µM in the experiment with H9c2 (setting [2]); above 79 µM in the experiment on H9c2 (setting [3]). Further, the IC50 with H9c2 (setting [4]), in the experiment with H9c2 (setting [5]), in the experiment on H9c2 (setting [6]), with H9c2 (setting [7]), with H9c2 (setting [8]) and in the experiment with H9c2 (setting [9]) was above 79 µM throughout. Further, in the experiment on H9c2 (setting [10]), the IC50 was above 79 µM.

As for `COc1ccc2c(c1OC)C(=O)N1c3ccccc3C(=O)N(Cc3ccccc3Cl)C21` (stereo not given), the IC50 in the experiment on HL-1 (setting [1]) is 2.3 µM; in the experiment with HL-1 (setting [2]), 1.05 µM; in the experiment with HL-1 (setting [3]), 1.56 µM; in the experiment with HL-1 (setting [4]), 2.66 µM; in the experiment on HL-1 (setting [5]), 3.94 µM; in the experiment with HL-1 (setting [6]) it was above 79 µM. Besides, the IC50 is above 79 µM with HL-1 (setting [7]); above 79 µM in the experiment with HL-1 (setting [8]); above 79 µM in the experiment with HL-1 (setting [9]); above 79 µM in the experiment with HL-1 (setting [10]); 15.8 µM in the experiment with H9c2 (setting [1]); 17 µM in the experiment with H9c2 (setting [2]). The IC50 with H9c2 (setting [3]) is 20.1 µM; in the experiment with H9c2 (setting [4]), 12 µM; with H9c2 (setting [5]), 14.2 µM; with H9c2 (setting [7]), 0.558 µM; with H9c2 (setting [8]), 0.745 µM; in the experiment on H9c2 (setting [9]) it was above 79 µM. For the same molecule, the IC50 in the experiment with H9c2 (setting [10]) was above 79 µM.

Turning to `CCOC(=O)c1ccccc1NC(=O)c1cc(-c2cc(OC)c(OC)c(OC)c2)nc2ccccc12`, the concentration for half-maximal inhibition (IC50) with HL-1 (setting [2]) is 2.72 µM; in the experiment on HL-1 (setting [3]), 3 µM; in the experiment with HL-1 (setting [4]) it was above 79 µM; in the experiment on HL-1 (setting [5]), above 79 µM; in the experiment on HL-1 (setting [7]) it was above 79 µM; in the experiment on HL-1 (setting [8]), above 79 µM. In addition, the IC50 in the experiment with HL-1 (setting [9]) is above 79 µM; in the experiment with HL-1 (setting [10]), 6.51 µM; with H9c2 (setting [1]), above 79 µM; with H9c2 (setting [2]) it was above 79 µM; with H9c2 (setting [3]) it was above 79 µM; in the experiment with H9c2 (setting [4]) it was above 79 µM. The IC50 in the experiment on H9c2 (setting [5]) is above 79 µM; in the experiment on H9c2 (setting [7]) it was 4.3 µM; with H9c2 (setting [8]) it was 4.52 µM; with H9c2 (setting [9]), above 79 µM; in the experiment on H9c2 (setting [10]), above 79 µM.

With `CCOC(=O)c1cccc(NC(=O)c2cc(-c3cc(OC)c(OC)c(OC)c3)nc3ccc(C)cc23)c1`, the IC50 in the experiment on HL-1 (setting [2]) was 2.03 µM; with HL-1 (setting [3]), 2.12 µM; in the experiment with HL-1 (setting [4]), above 79 µM; with HL-1 (setting [5]), above 79 µM; with HL-1 (setting [7]), above 79 µM; with HL-1 (setting [8]), 2.63 µM. Also, the IC50 in the experiment on HL-1 (setting [9]) was 1.79 µM; in the experiment on HL-1 (setting [10]) it was 2.94 µM; in the experiment with H9c2 (setting [1]) it was above 79 µM; with H9c2 (setting [2]), above 79 µM; in the experiment on H9c2 (setting [3]), above 79 µM; with H9c2 (setting [4]), above 79 µM. The IC50 is above 79 µM in the experiment on H9c2 (setting [5]); 2.96 µM in the experiment with H9c2 (setting [6]); 2.98 µM in the experiment on H9c2 (setting [7]); 3.24 µM in the experiment on H9c2 (setting [8]); 2.59 µM in the experiment with H9c2 (setting [9]); 3.01 µM with H9c2 (setting [10]).
